Experimental data as given in patent US20100197914A1, “Purine Derivatives as Adenosine Al Receptor Ligands” (priority 2007, published 2010).

Target: T1, adenosine A1 receptor (Homo sapiens, UniProt P30542)
T1 sequence (P30542 1-326): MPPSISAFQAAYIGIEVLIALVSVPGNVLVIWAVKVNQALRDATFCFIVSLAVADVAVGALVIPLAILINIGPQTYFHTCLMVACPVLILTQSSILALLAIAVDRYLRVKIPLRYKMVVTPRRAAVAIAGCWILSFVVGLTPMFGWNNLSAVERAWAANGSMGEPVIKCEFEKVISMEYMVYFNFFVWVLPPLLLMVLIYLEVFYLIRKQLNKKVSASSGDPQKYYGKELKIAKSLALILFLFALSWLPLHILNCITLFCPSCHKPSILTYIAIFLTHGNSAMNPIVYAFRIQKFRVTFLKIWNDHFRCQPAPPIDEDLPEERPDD
Assay: In vitro functional activity based on the stimulation of [35S]-GTPγS binding (SPA, agonist format)
Format: biochemical
Conditions: mean of >2 measurements; A1 membranes, [35S]-GTPγS SPA assay; read-out: Mean pEC50 (converted)
Description: In Vitro Functional Activity at the Human a Receptor Based on the Stimulation of [^35S]-GTPγS Binding
In brief the assay is based on the conventional GTPγS binding assay described by ([Lorenzen A, Guerra L, Vogt H, et al, (1996)] Interaction of full and partial agonists of the A1 adenosine receptor with receptor/G protein complexes in rat brain membranes. Mol Pharmacol. 49(5):915-26) The assay is run as a SPA assay where the A1 membranes are captured by wheatgerm agglutinin (WGA) SPA beads, through a specific interaction between WGA and carbohydrate residues of glycoprotein's on the surfaces for the membranes. Upon receptor stimulation, [^35S]-GTPγS binds specifically to the alpha subunit of the G-protein thus bringing the [^35S]-GTPγS into close proximity with the SPA beads. Emitted β particles from the [^35S]-GTPγS excite the scintillant in the beads and produce light. […] The assays were performed in a final volume of 250 μL per well in a white non-binding surface 96-well Optiplates and could be run in either an agonist format, or an antagonist format (pre-incubation with an EC50 concentration of the appropriate receptor agonist).

Row | EC50 | SMILES
1 | 0.0479 µM | CCC(=O)N[C@H]1C[C@@H](n2cnc3c(NC4CCCC4)ncnc32)[C@H](O)[C@@H]1O [Example 1, N-[(1S,2R,3S,4R)-4-(6-Cyclopentylamino-purin-9-yl)-2,3-dihydroxy-cyclopentyl]-propionamide]
2 | 0.0677 µM | CCC(=O)N[C@H]1C[C@@H](n2cnc3c(NC4CCCC4)nc(Cl)nc32)[C@H](O)[C@@H]1O [Example 2, N-[(1S,2R,3S,4R)-4-(2-Chloro-6-cyclopentylamino-purin-9-yl)-2,3-dihydroxy-cyclopentyl]-propionamide]
3 | 0.0979 µM | O=C(CO)N[C@H]1C[C@@H](n2cnc3c(NC4CCCC4)ncnc32)[C@H](O)[C@@H]1O [Example 3, N-[(1S,2R,3S,4R)-4-(6-Cyclopentylamino-purin-9-yl)-2,3-dihydroxy-cyclopentyl]-2-hydroxy-acetamide]
4 | 0.0401 µM | O=C(CO)N[C@H]1C[C@@H](n2cnc3c(NC4CCCC4)nc(Cl)nc32)[C@H](O)[C@@H]1O [Example 4, N-[(1S,2R,3S,4R)-4-(2-Chloro-6-cyclopentylamino-purin-9-yl)-2,3-dihydroxy-cyclopentyl]-2-hydroxy-acetamide]
